Test results taken from patent US6387947B1, “Antimicrobial cosmetic compositions” (E-L Management Corp., priority 1997, dated 2002).
“Also recorded” adds a separate entry of the source.

How the values were obtained:
Enterics [1] = assay: microbial challenge of nonionic oil-in-water emulsion, pool 1; format: cell-based; details: for concentration of microbes: 0.473% in emulsion
Protocol: (§1) A nonionic oil-in-water emulsion is prepared containing 0.473% 3-furan carboxylic acid. The formulation is divided into five portions, each one getting an inoculation at day 0, and a reinoculation after three weeks, of one of the following microbial cultures: (1)Enterics; (2) Pseudomonas; (3)Staphylococcus; (4)Yeast; and (5)Mold. The concentration of microbes in each individual formulation is calculated on the day of the inoculation, and then again calculated on day 2, and at the end of one, two, three (pre-reinoculation) and four weeks, at a variety of pH values. These are also compared with formulations containing 2-furan carboxylic acid and an identical series of microbes, and an acid pH control emulsion without a furan carboxylic acid added. All numbers, other than those listed as “<10”, are log base 10; thus, for example, “6.6” is equivalent to the presence of […] bacteria. Entries of <10 indicate less than 10 colony forming units, the lowest level of detection.

Pseudomonas [2] = assay: microbial challenge of nonionic oil-in-water emulsion, pool 2; format: cell-based; details: for concentration of microbes: 0.473% in emulsion
Protocol: as §1

Staphylococcus = assay: microbial challenge of nonionic oil-in-water emulsion, pool 3; format: cell-based; details: for concentration of microbes: 0.473% in emulsion
Protocol: The formulation is divided into five portions, each one getting an inoculation at day 0, and a reinoculation after three weeks, of one of the following microbial cultures: (1)Enterics; (2) Pseudomonas; (3)Staphylococcus; (4)Yeast; and (5)Mold. The concentration of microbes in each individual formulation is calculated on the day of the inoculation, and then again calculated on day 2, and at the end of one, two, three (pre-reinoculation) and four weeks, at a variety of pH values. These are also compared with formulations containing 2-furan carboxylic acid and an identical series of microbes, and an acid pH control emulsion without a furan carboxylic acid added. All numbers, other than those listed as “<10”, are log base 10; thus, for example, “6.6” is equivalent to the presence of […] bacteria. Entries of <10 indicate less than 10 colony forming units, the lowest level of detection.

Yeast = assay: microbial challenge of nonionic oil-in-water emulsion, pool 4; format: cell-based; details: for concentration of microbes: 0.473% in emulsion
Protocol: as §1

Mold = assay: microbial challenge of nonionic oil-in-water emulsion, pool 5; format: cell-based; details: for concentration of microbes: 0.473% in emulsion
Protocol: as §1

[3] = antiirritant effect against Balsam of Peru on ventral forearms of volunteers; format: in vivo, human; details: 0.1% in hydroalcohol 1:1, applied twenty minutes before Balsam of Peru; Minolta Chromameter; seven volunteers
Protocol: Seven volunteers with a history of skin sensitivity to Balsam of Peru are chosen for the study.
The test compounds are applied to the ventral forearms of panelists. The material is allowed to absorb for twenty minutes and then Balsam of Peru, an irritant is applied on the test sites. Skin irritation is measured in terms of increase in skin redness. The degree of redness is measured with a Minolta Chromameter and compared with the controls, the positive control being skin treated with Balsam of Peru alone, and the negative control being a skin site treated with 10% cola solution(a known antiirritant), and challenged like the test products.

[4] = system: PLA2 enzyme obtained from snake venom; details: assay concentrations 0.01, 0.1 and 1 mg/ml
Protocol: The enzyme reaction is accomplished in a cuvette containing […] of phosphate buffered saline. Fluorometric substrate NBD-C6-HPC is solubilized 1 mM in EtOH, and is diluted in the reaction mixture to yield a 10 μM final concentration. The assay is initiated with the addition of 0.001 units per μl of PLA2 enzyme obtained from snake venom. Enzyme activity is monitored either with or without the presence of potential inhibitors. […] Prior to enzyme addition, samples are measured fluorometrically at excitation 470 and emission 570 to determine background level of fluorescensce. Following enzyme addition, samples are monitored every 15 minutes over a 60 minute period.

[5] = system: lymphocyte adhesion to endothelial cells; assay: inhibition of lymphocyte adhesion to endothelial cells; format: cell-based, human
Protocol: Endothelial cells are grown to confluence and washed thoroughly with basal media prior to the experiment to remove all fetal calf serum. The test compounds are then added to the endothelial culture well and incubated for 2 hours. IL-1β is added to stimulated expression of adhesion molecules on the endothelial cells before lymphocytes are added. Lymphocytes are isolated from blood collected from adult human subjects and added to the endothelial culture wells. PHA is added to stimulate adhesion molecule expression in the lymphocytes and the cultures incubated overnight. After a brief washing procedure, cells are incubated with Rose Bengal, and the number of adherent cells assessed by measuring the absorbance at 570 nm.

Enterics [6] = assay: microbial challenge of nonionic oil-in-water emulsion, pool 1; format: cell-based; details: 0.473% in emulsion
Pseudomonas [7] = assay: microbial challenge of nonionic oil-in-water emulsion, pool 2; format: cell-based; details: 0.473% in emulsion

Structure (SMILES): O=C(O)c1ccoc1 [3-furan carboxylic acid]
- antimicrobial activity against Enterics, in words (Enterics [1]): capable of preventing growth
- concentration of microbes (Enterics [1]; pH 3.0, Week 1): <10 colony forming units
- concentration of microbes (Enterics [1]; pH 3.0, Week 2): <10 colony forming units
- concentration of microbes (Enterics [1]; pH 3.0, Week 3): <10 colony forming units
- concentration of microbes (Enterics [1]; pH 4.0, Day 0): 6.6 log base 10
- concentration of microbes (Enterics [1]; pH 4.0, Week 1): <10 colony forming units
- concentration of microbes (Enterics [1]; pH 4.0, Week 2): <10 colony forming units
- concentration of microbes (Enterics [1]; pH 5.0, Week 1): <10 colony forming units
- concentration of microbes (Enterics [1]; pH 5.0, Week 3): <10 colony forming units
- antimicrobial activity against Pseudomonas, in words (Pseudomonas [2]): capable of preventing growth
- concentration of microbes (Pseudomonas [2]; pH 3.0, Week 3): <10 colony forming units
- concentration of microbes (Pseudomonas [2]; pH 4.0, Week 1): <10 colony forming units
- concentration of microbes (Pseudomonas [2]; pH 4.0, Week 2): <10 colony forming units
- concentration of microbes (Pseudomonas [2]; pH 4.0, Week 3): <10 colony forming units
- concentration of microbes (Pseudomonas [2]; pH 5.0, Week 1): <10 colony forming units
- concentration of microbes (Pseudomonas [2]; pH 5.0, Week 2): <10 colony forming units
- concentration of microbes (Pseudomonas [2]; pH 5.0, Week 4): <10 colony forming units
- antimicrobial activity against Staphylococcus, in words (Staphylococcus): capable of preventing growth
- concentration of microbes (Staphylococcus; pH 3.0, Day 0): 6.3 log base 10
- concentration of microbes (Staphylococcus; pH 3.0, Day 2): <10 colony forming units
- concentration of microbes (Staphylococcus; pH 3.0, Week 1): <10 colony forming units
- concentration of microbes (Staphylococcus; pH 3.0, Week 2): <10 colony forming units
- concentration of microbes (Staphylococcus; pH 3.0, Week 3): <10 colony forming units
- concentration of microbes (Staphylococcus; pH 3.0, Week 4): <10 colony forming units
- concentration of microbes (Staphylococcus; pH 4.0, Day 0): 6.3 log base 10
- concentration of microbes (Staphylococcus; pH 4.0, Day 2): <10 colony forming units
- concentration of microbes (Staphylococcus; pH 4.0, Week 1): <10 colony forming units
- concentration of microbes (Staphylococcus; pH 4.0, Week 2): <10 colony forming units
- concentration of microbes (Staphylococcus; pH 4.0, Week 3): <10 colony forming units
- concentration of microbes (Staphylococcus; pH 4.0, Week 4): <10 colony forming units
- concentration of microbes (Staphylococcus; pH 5.0, Day 0): 6.3 log base 10
- concentration of microbes (Staphylococcus; pH 5.0, Day 2): <10 colony forming units
- concentration of microbes (Staphylococcus; pH 5.0, Week 1): <10 colony forming units
- concentration of microbes (Staphylococcus; pH 5.0, Week 2): <10 colony forming units
- concentration of microbes (Staphylococcus; pH 5.0, Week 3): <10 colony forming units
- concentration of microbes (Staphylococcus; pH 5.0, Week 4): <10 colony forming units
- antimicrobial activity against yeast, in words (Yeast): substantially reducing the growth; also recorded: superior to 2-furan carboxylic acid
- concentration of microbes (Yeast; pH 3.0, Day 0): 5.7 log base 10
- concentration of microbes (Yeast; pH 3.0, Day 2): <10 colony forming units
- concentration of microbes (Yeast; pH 3.0, Week 1): <10 colony forming units
- concentration of microbes (Yeast; pH 3.0, Week 2): <10 colony forming units
- concentration of microbes (Yeast; pH 3.0, Week 3): <10 colony forming units
- concentration of microbes (Yeast; pH 3.0, Week 4): <10 colony forming units
- concentration of microbes (Yeast; pH 4.0, Day 0): 5.7 log base 10
- concentration of microbes (Yeast; pH 4.0, Day 2): 2.5 log base 10
- concentration of microbes (Yeast; pH 4.0, Week 1): <10 colony forming units
- concentration of microbes (Yeast; pH 4.0, Week 2): <10 colony forming units
- concentration of microbes (Yeast; pH 4.0, Week 3): <10 colony forming units
- concentration of microbes (Yeast; pH 4.0, Week 4): <10 colony forming units
- concentration of microbes (Yeast; pH 5.0, Day 0): 5.7 log base 10
- concentration of microbes (Yeast; pH 5.0, Day 2): 2.5 log base 10
- concentration of microbes (Yeast; pH 5.0, Week 1): 2.7 log base 10
- concentration of microbes (Yeast; pH 5.0, Week 2): 1.7 log base 10
- concentration of microbes (Yeast; pH 5.0, Week 3): 2.0 log base 10
- concentration of microbes (Yeast; pH 5.0, Week 4): 1.8 log base 10
- antimicrobial activity against Mold, in words (Mold): capable of preventing growth; also recorded: superior to 2-furan carboxylic acid
- concentration of microbes (Mold; pH 3.0, Day 0): 5.2 log base 10
- concentration of microbes (Mold; pH 3.0, Day 2): <10 colony forming units
- concentration of microbes (Mold; pH 3.0, Week 1): <10 colony forming units
- concentration of microbes (Mold; pH 3.0, Week 2): <10 colony forming units
- concentration of microbes (Mold; pH 3.0, Week 3): <10 colony forming units
- concentration of microbes (Mold; pH 3.0, Week 4): <10 colony forming units
- concentration of microbes (Mold; pH 4.0, Day 0): 5.2 log base 10
- concentration of microbes (Mold; pH 4.0, Day 2): <10 colony forming units
- concentration of microbes (Mold; pH 4.0, Week 1): <10 colony forming units
- concentration of microbes (Mold; pH 4.0, Week 2): <10 colony forming units
- concentration of microbes (Mold; pH 4.0, Week 3): <10 colony forming units
- concentration of microbes (Mold; pH 4.0, Week 4): <10 colony forming units
- concentration of microbes (Mold; pH 5.0, Day 0): 5.2 log base 10
- concentration of microbes (Mold; pH 5.0, Day 2): <10 colony forming units
- concentration of microbes (Mold; pH 5.0, Week 1): <10 colony forming units
- concentration of microbes (Mold; pH 5.0, Week 2): <10 colony forming units
- concentration of microbes (Mold; pH 5.0, Week 3): <10 colony forming units
- concentration of microbes (Mold; pH 5.0, Week 4): <10 colony forming units
- effectiveness in preventing the onset of irritation (reduction of skin redness) [3]: 48%
- PLA2 inhibition, in words [4]: exceptionally active
- inhibition of adhesion of polymorphonuclear leukocytes (PMNs) to activated endothelial cells, in words [5]: ability to inhibit the adhesion
- inhibition of lymphocyte adhesion, in words (absorbance at 570 nm, Rose Bengal) ([5]; concentrations of 0.5% and 1%, IL-1β and PHA stimulated): very potent inhibitors of lymphocyte adhesion
- concentration of microbes (Enterics [6]; pH 3.0, Day 0): 6.6 log base 10
- concentration of microbes (Enterics [6]; pH 3.0, Day 2): <10 colony forming units
- concentration of microbes (Enterics [6]; pH 3.0, Week 4): <10 colony forming units
- concentration of microbes (Enterics [6]; pH 4.0, Day 2): <10 colony forming units
- concentration of microbes (Enterics [6]; pH 4.0, Week 3): <10 colony forming units
- concentration of microbes (Enterics [6]; pH 4.0, Week 4): <10 colony forming units
- concentration of microbes (Enterics [6]; pH 5.0, Day 0): 6.6 log base 10
- concentration of microbes (Enterics [6]; pH 5.0, Day 2): <10 colony forming units
- concentration of microbes (Enterics [6]; pH 5.0, Week 2): <10 colony forming units
- concentration of microbes (Enterics [6]; pH 5.0, Week 4): <10 colony forming units
- concentration of microbes (Pseudomonas [7]; pH 3.0, Day 2): <10 colony forming units
- concentration of microbes (Pseudomonas [7]; pH 3.0, Week 1): <10 colony forming units
- concentration of microbes (Pseudomonas [7]; pH 3.0, Week 2): <10 colony forming units
- concentration of microbes (Pseudomonas [7]; pH 3.0, Week 4): <10 colony forming units
- concentration of microbes (Pseudomonas [7]; pH 4.0, Day 2): <10 colony forming units
- concentration of microbes (Pseudomonas [7]; pH 4.0, Week 4): <10 colony forming units
- concentration of microbes (Pseudomonas [7]; pH 5.0, Day 2): <10 colony forming units
- concentration of microbes (Pseudomonas [7]; pH 5.0, Week 3): <10 colony forming units

Structure (SMILES): COc1cc(/C=C/C(=O)O)ccc1O [Ferulic acid, ferulic acid]
- effectiveness in preventing the onset of irritation (reduction of skin redness) [3]: 72%
